Measured values taken from EP0206497B1, “Therapeutic nucleosides and their preparation” (priority 1985, dated 1986).

Key:
Assay type in all cases: cell-based
[1] = Cytotoxic effect against L cells; conditions: mouse, 10⁻⁴ M, % growth relative to the control
Experimental: (§1) The following compounds were tested for cytotoxic effect at 10⁻⁴ M against human D-98 and mouse L cells. Figures shown are % growth relative to the control.

[2] = Cytotoxic effect against D-98 cells; conditions: human, 10⁻⁴ M, % growth relative to the control
Experimental: as §1

friend leukaemia virus = assay: Retroviral activity against friend leukaemia virus; conditions: read-out: ED₅₀
Experimental: (§2) • a) Feline Leukaemia Virus Susceptible feline embryo lung fibroblasts (FLF-3) were seeded onto multiwell slides (10⁵ cells/ml, 0.05 ml/well) with Dulbecco-modified Eagle's essential medium (DME) and incubated at 37 °C overnight. Each of the 32 wells was then infected with 40-60 focus forming units (ffu) of feline leukaemia virus (FeLV) for one hour after which the medium was replaced with fresh DME with varying concentrations of 2,6-diaminopurine-9-β-D-2',3'-dideoxyribofuranoside per 4 wells. Concentrations were 0, 1.0, 10, 50, 100, 200 and 400 »M. After 3 days incubation at 37 °C, the cultures were assayed by the indirect fluorescent antigen test for the production of FeLV. […]. […] This protective effect was seen on both days 10 and 13 of the experiment. • c) Friend Leukaemia virus The compounds have been tested for retroviral activity against friend leukaemia virus with the following results.

HIV = assay: Block of HIV infection / cytopathic effect in cloned T4 positive T helper lymphocytes (cell survival); conditions: after 10 days in culture (protective effect seen on days 10 and 13), up to 5000 virions/cell, untreated infected cells 8-fold decreased
Experimental: as §2

[3] = tested on: feline leukaemia virus (FeLV); assay: Feline leukaemia virus production in infected FLF-3 fibroblasts, indirect fluorescent antigen test; conditions: FLF-3 cells; for inhibition: 3 days incubation
Experimental: as §2

SMILES: Nc1nc2c(ncn2[C@H]2CC[C@@H](CO)O2)c(=O)[nH]1 [2',3'-dideoxyguanosine, reference compound]
- activity at 100 µM [1]: 93%
- activity at 100 µM [2]: 87%
- EC50 (friend leukaemia virus): 25.9 µM

SMILES: Nc1nc(N)c2ncn([C@H]3CC[C@@H](CO)O3)c2n1 [2,6-Diaminopurine-9-β-D-2',3'-dideoxyribofuranoside]
- activity at 100 µM [1]: 41%
- activity at 100 µM [2]: 97%
- viral cytopathic effects in infected T cells (HIV; 2 »M): no viral cytopathic effects were seen
- viral cytopathic effects in infected T cells (HIV; 10 »M): no viral cytopathic effects were seen
- inhibition ([3]; 0.1 »M): 31%
- inhibition ([3]; 10 »M): 45%
- inhibition ([3]; 50 »M): 60%
- production of FeLV ([3]; concentrations of 100 »M and above, 3 days incubation at 37°C): Complete absence of FeLV
- EC50 (friend leukaemia virus): 22.4 µM

SMILES: Nc1ncc2ncn([C@H]3CC[C@@H](CO)O3)c2n1 [2-Aminopurine-9-β-D-2',3'-dideoxyribofuranoside]
- activity at 100 µM [1]: 107%
- activity at 100 µM [2]: 97%
